Measurements reported in US20240415819A1, “MACROCYCLIC COMPOUNDS AS PROTEASOME SUBUNIT BETA TYPE-5 INHIBITORS” (Lead Discovery Center GmbH, priority 2021, published 2024).

Experiments:
[1] = system: A549 (human lung carcinoma cell line); experiment: Glo assay of A549 cells (Table 3; ProteasomeGlo plating scheme); format: cell-based; conditions: Homo sapiens; A549 cells; read-out: PGLo A549
Method in brief: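 Luminescent read-out of cellular chymotrypsin-like proteasome activity: cells exposed to compound 105 min at 37° C., 5% CO2, then given Suc-LLVY-Glo reagent, shaken 2-5 min and kept dark 10-15 min before reading. Values are IC50 [nM].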

[2] = target: T1, β5 subunit of the human immunoproteasome (IPS) (Homo sapiens, UniProt P28062); experiment: β5 inhibition assay, human immunoproteasome (Suc-LLVY-AMC); format: biochemical; conditions: IC50 class, Suc-LLVY-AMC substrate
T1 construct: purchased Boston Biochem E-370
Method in brief: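 Human immunoproteasome (1 nM final) was preincubated 10 min at RT with compound in 100 mM HEPES pH 7.5, 50 mM NaCl, 0.02% SDS, 1 mM DTT. Suc-LLVY-AMC (22.6 μM final) was then added for 4 h at RT in the dark. After stopping with 1 μM bortezomib, AMC fluorescence was read (ex 355/em 460 nm).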

[3] = system: MM1 S (B lymphoblast cell line); experiment: 48 hr CTG viability assay, MM1S; format: cell-based; conditions: Homo sapiens, 48 hr CTG, read-out: MM1S IC50
Method in brief: (§1)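 Growth inhibition by compound over 48 h; IC50 (nM) derived from duplicate CellTiter-Glo luminescence readings across 0.0015–10 uM.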

[4] = target: T2, β5 subunit of the human constitutive proteasome (CPS) (Homo sapiens, UniProt P28074); experiment: β5 inhibition assay, human constitutive proteasome (Suc-LLVY-AMC); format: biochemical; conditions: IC50 class, Suc-LLVY-AMC substrate
T2 construct: purchased Boston Biochem E-360
Experimental: The enzymatic activity of the β5 subunit of the human constitutive proteasome (CPS) is analyzed. In another assay, which differs from the assay of the human constitutive proteasome only in using the human immunoproteasome (IPS) the enzymatic activity of the β5 subunit of the human immunoproteasome (IPS) is analyzed. […] Inhibition is indicated as IC50 [nM] (“-”=not measured).

[5] = system: RPMI 8226 (B lymphocyte cell line, multiple myeloma); experiment: 48 hr CTG viability assay, RPMI 8226; format: cell-based; conditions: Homo sapiens, RPMI-8226; 48 hr CTG; read-out: RPMI-8226 IC50
Method in brief: as §1

[6] = system: Hs 746T (human gastric carcinoma cell line); experiment: 48 hr CTG viability assay, Hs 746T; format: cell-based; conditions: Hs746T, 48 hr CTG, read-out: Hs 746T IC50
Method in brief: as §1

Compound	IC50 [1] [nM]	IC50 [2] [nM]	IC50 [3] [nM]	IC50 [4] [nM]	IC50 [5] [nM]	IC50 [6] [nM]
Cc1ccc2cc1CNC(=O)[C@H](CCN1C[C@@H]3C[C@H]1CO3)NC(=O)[C@@H](NC(=O)Cc1cn3ccsc3n1)CC(=O)N1CCCC(CCO2)C1 [Compound 739, N-((9S,12S)-9-(2-((1S,4S)-2-oxa-5-azabicyclo[2.2.1]heptan-5-yl)ethyl)-5^4-methyl-8,11,14-trioxo-4-oxa-7,10-diaza-1(3,1)-piperidina-5(1,3)-benzenacyclotetradecaphane-12-yl)-2-(imidazo[2,1-b]thiazol-6-yl)acetamide]	< 100	< 100	< 100	< 100	< 100	100 to 500
Cc1ccc2cc1CNC(=O)[C@H](CCc1ccccc1)NC(=O)[C@@H](NC(=O)C1CC3CCC(C1)N3C)CC(=O)N1CCCC(CCO2)C1 (stereo partly drawn) [Compound 713, 8-methyl-N-((9S,12S)-5^4-methyl-8,11,14-trioxo-9-phenethyl-4-oxa-7,10-diaza-1(3,1)-piperidina-5(1,3)-benzenacyclotetradecaphane-12-yl)-8-azabicyclo[3.2.1]octane-3-carboxamide]	< 100	< 100	< 100	< 100	< 100	100 to 500
Cc1ccc2cc1CNC(=O)[C@H](CCC(C)C)NC(=O)[C@@H](NC(=O)Cc1cn3ccsc3n1)CC(=O)N1CCCC(CCO2)C1 (stereo partly drawn) [Compound 583, 2-(imidazo[2,1-b]thiazol-6-yl)-N-((9S,12S)-9-isopentyl-5^4-methyl-8,11,14-trioxo-4-oxa-7,10-diaza-1(3,1)-piperidina-5(1,3)-benzenacyclotetradecaphane-12-yl)acetamide]	< 100	< 100	< 100	< 100	< 100	< 100
Cc1ccc2cc1CNC(=O)[C@H](CCc1ccccc1)NC(=O)[C@@H](NC(=O)CCOCCCC1CC1)CC(=O)N1CCCC(CCO2)C1 (stereo partly drawn) [Compound 626, 3-(3-cyclopropylpropoxy)-N-((9S,12S)-5^4-methyl-8,11,14-trioxo-9-phenethyl-4-oxa-7,10-diaza-1(3,1)-piperidina-5(1,3)-benzenacyclotetradecaphane-12-yl)propanamide]	< 100	< 100	< 100	< 100	< 100	< 100
COc1ccccc1COCCC(=O)N[C@H]1CC(=O)N2CCCC(CCOc3ccc(C)c(c3)CNC(=O)[C@H](CCc3ccccc3)NC1=O)C2 (stereo partly drawn) [Compound 619, 3-((2-methoxybenzyl)oxy)-N-((9S,12S)-5^4-methyl-8,11,14-trioxo-9-phenethyl-4-oxa-7,10-diaza-1(3,1)-piperidina-5(1,3)-benzenacyclotetradecaphane-12-yl)propanamide]	< 100	< 100	< 100	< 100	< 100	< 100
Cc1ccc2cc1CNC(=O)[C@H](CCc1ccccc1)NC(=O)[C@@H](NCC(F)(F)F)CC(=O)N1CCCC(CCO2)C1 (stereo partly drawn) [Compound 709, (9S,12S)-5^4-methyl-9-phenethyl-12-((2,2,2-trifluoroethyl)amino)-4-oxa-7,10-diaza-1(3,1)-piperidina-5(1,3)-benzenacyclotetradecaphane-8,11,14-trione]	< 100	< 100	< 100	< 100	< 100	100 to 500

Second part, the molecule after the results:

IC50 [1] [nM]	IC50 [2] [nM]	IC50 [3] [nM]	IC50 [4] [nM]	IC50 [5] [nM]	IC50 [6] [nM]	Compound
< 100	< 100	< 100	< 100	< 100	< 100	Cc1ccc2cc1CNC(=O)[C@H](CCc1ccccc1)NC(=O)[C@@H](NC(=O)N1Cc3ccc(N)cc3C1)CC(=O)N1CCCC(CCO2)C1 (stereo partly drawn) [Compound 687, 5-amino-N-((9S,12S)-5^4-methyl-8,11,14-trioxo-9-phenethyl-4-oxa-7,10-diaza-1(3,1)-piperidina-5(1,3)-benzenacyclotetradecaphane-12-yl)isoindoline-2-carboxamide]
< 100	< 100	< 100	< 100	< 100	< 100	Cc1ccc2cc1CNC(=O)[C@H](CCc1ccccc1)NC(=O)[C@@H](NC(=O)CCN1CCC3(COC3)C1)CC(=O)N1CCCC(CCO2)C1 (stereo partly drawn) [Compound 648, N-((9S,12S)-5^4-methyl-8,11,14-trioxo-9-phenethyl-4-oxa-7,10-diaza-1(3,1)-piperidina-5(1,3)-benzenacyclotetradecaphane-12-yl)-3-(2-oxa-6-azaspiro[3.4]octan-6-yl)propanamide]
< 100	< 100	< 100	< 100	< 100	< 100	COc1cccc(COCCC(=O)N[C@H]2CC(=O)N3CCCC(CCOc4ccc(C)c(c4)CNC(=O)[C@H](CCc4ccccc4)NC2=O)C3)c1 (stereo partly drawn) [Compound 585, 3-((3-methoxybenzyl)oxy)-N-((9S,12S)-5^4-methyl-8,11,14-trioxo-9-phenethyl-4-oxa-7,10-diaza-1(3,1)-piperidina-5(1,3)-benzenacyclotetradecaphane-12-yl)propanamide]
< 100	< 100	< 100	< 100	< 100	< 100	COc1ccc(OCCC(=O)N[C@H]2CC(=O)N3CCCC(CCOc4ccc(C)c(c4)CNC(=O)[C@H](CCc4ccccc4)NC2=O)C3)cc1 (stereo partly drawn) [Compound 622, 3-(4-methoxyphenoxy)-N-((9S,12S)-5^4-methyl-8,11,14-trioxo-9-phenethyl-4-oxa-7,10-diaza-1(3,1)-piperidina-5(1,3)-benzenacyclotetradecaphane-12-yl)propanamide]
< 100	< 100	< 100	< 100	< 100	< 100	Cc1ccc2cc1CNC(=O)[C@H](CCc1ccccc1)NC(=O)[C@@H](NC(=O)CCOCC1CCCC1)CC(=O)N1CCCC(CCO2)C1 (stereo partly drawn) [Compound 625, 3-(cyclopentylmethoxy)-N-((9S,12S)-5^4-methyl-8,11,14-trioxo-9-phenethyl-4-oxa-7,10-diaza-1(3,1)-piperidina-5(1,3)-benzenacyclotetradecaphane-12-yl)propanamide]
< 100	< 100	< 100	< 100	< 100	< 100	Cc1ccc2cc1CNC(=O)[C@H](CCc1ccccc1)NC(=O)[C@@H](NC(=O)C1CCC3(CCOCC3)CC1)CC(=O)N1CCCC(CCO2)C1 (stereo partly drawn) [Compound 584, N-((9S,12S)-5^4-methyl-8,11,14-trioxo-9-phenethyl-4-oxa-7,10-diaza-1(3,1)-piperidina-5(1,3)-benzenacyclotetradecaphane-12-yl)-3-oxaspiro[5.5]undecane-9-carboxamide]
< 100	< 100	< 100	< 100	< 100	< 100	COc1ccccc1CCOCCC(=O)N[C@H]1CC(=O)N2CCCC(CCOc3ccc(C)c(c3)CNC(=O)[C@H](CCc3ccccc3)NC1=O)C2 (stereo partly drawn) [Compound 582, 3-(2-methoxyphenethoxy)-N-((9S,12S)-5^4-methyl-8,11,14-trioxo-9-phenethyl-4-oxa-7,10-diaza-1(3,1)-piperidina-5(1,3)-benzenacyclotetradecaphane-12-yl)propanamide]
< 100	< 100	< 100	< 100	< 100	< 100	Cc1ccc2cc1CNC(=O)[C@H](CCc1ccccc1)NC(=O)[C@@H](NC(=O)C(C)(C)c1ccc3ncccc3c1)CC(=O)N1CCCC(CCO2)C1 (stereo partly drawn) [Compound 609, 2-methyl-N-((9S,12S)-5^4-methyl-8,11,14-trioxo-9-phenethyl-4-oxa-7,10-diaza-1(3,1)-piperidina-5(1,3)-benzenacyclotetradecaphane-12-yl)-2-(quinolin-6-yl)propanamide]
< 100	< 100	< 100	< 100	< 100	< 100	Cc1ccc2cc1CNC(=O)[C@H](CCc1ccccc1)NC(=O)[C@@H](NC(=O)CCN1CC3(CCOCC3)C1)CC(=O)N1CCCC(CCO2)C1 (stereo partly drawn) [Compound 658, N-((9S,12S)-5^4-methyl-8,11,14-trioxo-9-phenethyl-4-oxa-7,10-diaza-1(3,1)-piperidina-5(1,3)-benzenacyclotetradecaphane-12-yl)-3-(7-oxa-2-azaspiro[3.5]nonan-2-yl)propanamide]
